# From PubChem BioAssay AID1259407 (Chemical Carcinogenesis Research Information System (CCRIS), 2018)
# The source made the active and inactive calls. No rule for the calls is given here.
# Tested on: CCRIS mutagenicity, Ames/micronucleus/aberration tests
# Assay: CCRIS mutagenicity studies
structure (smiles),measurement,setting,value
Cc1ccccc1Br,mutagenic call,"Test System: AMES SALMONELLA TYPHIMURIUM, Strain/Indicator: TA97, Metabolic Activation: HAMSTER, LIVER, S-9, AROCLOR 1254 (10%), Method: PREINCUBATION",inactive; negative
same,mutagenic call,"Test System: AMES SALMONELLA TYPHIMURIUM, Strain/Indicator: TA97, Metabolic Activation: HAMSTER, LIVER, S-9, AROCLOR 1254 (30%), Method: PREINCUBATION",inactive; negative
same,mutagenic call,"Test System: AMES SALMONELLA TYPHIMURIUM, Strain/Indicator: TA97, Metabolic Activation: NONE, Method: PREINCUBATION",inactive; negative
same,mutagenic call,"Test System: AMES SALMONELLA TYPHIMURIUM, Strain/Indicator: TA97, Metabolic Activation: RAT, LIVER, S-9, AROCLOR 1254 (10%), Method: PREINCUBATION",inactive; negative
same,mutagenic call,"Test System: AMES SALMONELLA TYPHIMURIUM, Strain/Indicator: TA97, Metabolic Activation: RAT, LIVER, S-9, AROCLOR 1254 (30%), Method: PREINCUBATION",inactive; negative
same,mutagenic call,"Test System: AMES SALMONELLA TYPHIMURIUM, Strain/Indicator: TA98, Metabolic Activation: HAMSTER, LIVER, S-9, AROCLOR 1254 (10%), Method: PREINCUBATION",inactive; negative
same,mutagenic call,"Test System: AMES SALMONELLA TYPHIMURIUM, Strain/Indicator: TA98, Metabolic Activation: HAMSTER, LIVER, S-9, AROCLOR 1254 (30%), Method: PREINCUBATION",inactive; negative
same,mutagenic call,"Test System: AMES SALMONELLA TYPHIMURIUM, Strain/Indicator: TA98, Metabolic Activation: NONE, Method: PREINCUBATION",inactive; negative
same,mutagenic call,"Test System: AMES SALMONELLA TYPHIMURIUM, Strain/Indicator: TA98, Metabolic Activation: RAT LIVER S-9, PHENOBARBITAL AND BETA-NAPHTHOFLAVONE, Method: PREINCUBATION",inactive; negative
same,mutagenic call,"Test System: AMES SALMONELLA TYPHIMURIUM, Strain/Indicator: TA98, Metabolic Activation: RAT, LIVER, S-9, AROCLOR 1254 (10%), Method: PREINCUBATION",inactive; negative
same,mutagenic call,"Test System: AMES SALMONELLA TYPHIMURIUM, Strain/Indicator: TA98, Metabolic Activation: RAT, LIVER, S-9, AROCLOR 1254 (30%), Method: PREINCUBATION",inactive; negative
same,mutagenic call,"Test System: AMES SALMONELLA TYPHIMURIUM, Strain/Indicator: TA100, Metabolic Activation: HAMSTER, LIVER, S-9, AROCLOR 1254 (10%), Method: PREINCUBATION",inactive; negative
same,mutagenic call,"Test System: AMES SALMONELLA TYPHIMURIUM, Strain/Indicator: TA100, Metabolic Activation: HAMSTER, LIVER, S-9, AROCLOR 1254 (30%), Method: PREINCUBATION",inactive; negative
same,mutagenic call,"Test System: AMES SALMONELLA TYPHIMURIUM, Strain/Indicator: TA100, Metabolic Activation: NONE, Method: PREINCUBATION",inactive; negative
same,mutagenic call,"Test System: AMES SALMONELLA TYPHIMURIUM, Strain/Indicator: TA100, Metabolic Activation: RAT LIVER S-9, PHENOBARBITAL AND BETA-NAPHTHOFLAVONE, Method: PREINCUBATION",inactive; negative
same,mutagenic call,"Test System: AMES SALMONELLA TYPHIMURIUM, Strain/Indicator: TA100, Metabolic Activation: RAT, LIVER, S-9, AROCLOR 1254 (10%), Method: PREINCUBATION",inactive; negative
same,mutagenic call,"Test System: AMES SALMONELLA TYPHIMURIUM, Strain/Indicator: TA100, Metabolic Activation: RAT, LIVER, S-9, AROCLOR 1254 (30%), Method: PREINCUBATION",inactive; negative
same,mutagenic call,"Test System: AMES SALMONELLA TYPHIMURIUM, Strain/Indicator: TA102, Metabolic Activation: NONE, Method: PREINCUBATION",inactive; negative
same,mutagenic call,"Test System: AMES SALMONELLA TYPHIMURIUM, Strain/Indicator: TA102, Metabolic Activation: RAT LIVER S-9, PHENOBARBITAL AND BETA-NAPHTHOFLAVONE, Method: PREINCUBATION",inactive; negative
same,mutagenic call,"Test System: AMES SALMONELLA TYPHIMURIUM, Strain/Indicator: TA104, Metabolic Activation: NONE, Method: PREINCUBATION",inactive; negative
same,mutagenic call,"Test System: AMES SALMONELLA TYPHIMURIUM, Strain/Indicator: TA104, Metabolic Activation: RAT LIVER S-9, PHENOBARBITAL AND BETA-NAPHTHOFLAVONE, Method: PREINCUBATION",inactive; negative
same,mutagenic call,"Test System: AMES SALMONELLA TYPHIMURIUM, Strain/Indicator: TA1535, Metabolic Activation: HAMSTER, LIVER, S-9, AROCLOR 1254 (10%), Method: PREINCUBATION",inactive; negative
same,mutagenic call,"Test System: AMES SALMONELLA TYPHIMURIUM, Strain/Indicator: TA1535, Metabolic Activation: HAMSTER, LIVER, S-9, AROCLOR 1254 (30%), Method: PREINCUBATION",inactive; negative
same,mutagenic call,"Test System: AMES SALMONELLA TYPHIMURIUM, Strain/Indicator: TA1535, Metabolic Activation: NONE, Method: PREINCUBATION",inactive; negative
same,mutagenic call,"Test System: AMES SALMONELLA TYPHIMURIUM, Strain/Indicator: TA1535, Metabolic Activation: RAT LIVER S-9, PHENOBARBITAL AND BETA-NAPHTHOFLAVONE, Method: PREINCUBATION",inactive; negative
same,mutagenic call,"Test System: AMES SALMONELLA TYPHIMURIUM, Strain/Indicator: TA1535, Metabolic Activation: RAT, LIVER, S-9, AROCLOR 1254 (10%), Method: PREINCUBATION",inactive; negative
same,mutagenic call,"Test System: AMES SALMONELLA TYPHIMURIUM, Strain/Indicator: TA1535, Metabolic Activation: RAT, LIVER, S-9, AROCLOR 1254 (30%), Method: PREINCUBATION",inactive; negative
same,mutagenic call,"Test System: AMES SALMONELLA TYPHIMURIUM, Strain/Indicator: TA1537, Metabolic Activation: HAMSTER, LIVER, S-9, AROCLOR 1254 (30%), Method: PREINCUBATION",inactive; negative
same,mutagenic call,"Test System: AMES SALMONELLA TYPHIMURIUM, Strain/Indicator: TA1537, Metabolic Activation: NONE, Method: PREINCUBATION",inactive; negative
same,mutagenic call,"Test System: AMES SALMONELLA TYPHIMURIUM, Strain/Indicator: TA1537, Metabolic Activation: RAT LIVER S-9, PHENOBARBITAL AND BETA-NAPHTHOFLAVONE, Method: PREINCUBATION",inactive; negative
same,mutagenic call,"Test System: AMES SALMONELLA TYPHIMURIUM, Strain/Indicator: TA1537, Metabolic Activation: RAT, LIVER, S-9, AROCLOR 1254 (30%), Method: PREINCUBATION",inactive; negative
same,mutagenic call,"Test System: E.COLI, Strain/Indicator: WP2UVRA/PKM101, Metabolic Activation: NONE, Method: PREINCUBATION",inactive; negative
same,mutagenic call,"Test System: E.COLI, Strain/Indicator: WP2UVRA/PKM101, Metabolic Activation: RAT LIVER S-9, PHENOBARBITAL AND BETA-NAPHTHOFLAVONE, Method: PREINCUBATION",inactive; negative
same,mutagenic call,"Test System: E.COLI, Strain/Indicator: WP2UVRA, Metabolic Activation: NONE, Method: PREINCUBATION",inactive; negative
same,mutagenic call,"Test System: E.COLI, Strain/Indicator: WP2UVRA, Metabolic Activation: RAT LIVER S-9, PHENOBARBITAL AND BETA-NAPHTHOFLAVONE, Method: PREINCUBATION",inactive; negative
C/C(Cl)=C/C=O,mutagenic call,"Test System: AMES SALMONELLA TYPHIMURIUM, Strain/Indicator: D3052, Metabolic Activation: NONE, Method: PREINCUBATION, LIQUID INCUBATION",active; positive
same,mutagenic call,"Test System: AMES SALMONELLA TYPHIMURIUM, Strain/Indicator: TA98, Metabolic Activation: NONE, Method: PREINCUBATION, LIQUID INCUBATION",inactive; negative
same,mutagenic call,"Test System: AMES SALMONELLA TYPHIMURIUM, Strain/Indicator: TA100, Metabolic Activation: NONE, Method: PREINCUBATION, LIQUID INCUBATION",inactive; negative
same,mutagenic call,"Test System: AMES SALMONELLA TYPHIMURIUM, Strain/Indicator: TA1535, Metabolic Activation: NONE, Method: PREINCUBATION, LIQUID INCUBATION",inactive; negative
same,mutagenic call,"Test System: AMES SALMONELLA TYPHIMURIUM, Strain/Indicator: TA1538, Metabolic Activation: NONE, Method: PREINCUBATION, LIQUID INCUBATION",inactive; negative
Cc1cc(Cl)ccc1OC(C)C(=O)O (stereo not given),mutagenic call,"Test System: AMES SALMONELLA TYPHIMURIUM, Strain/Indicator: TA97, Metabolic Activation: NONE, Method: STANDARD PLATE",inactive; negative
same,mutagenic call,"Test System: AMES SALMONELLA TYPHIMURIUM, Strain/Indicator: TA97, Metabolic Activation: RAT, LIVER, S-9, AROCLOR 1254, Method: STANDARD PLATE",inactive; negative
same,mutagenic call,"Test System: AMES SALMONELLA TYPHIMURIUM, Strain/Indicator: TA98, Metabolic Activation: NONE, Method: STANDARD PLATE",inactive; negative
same,mutagenic call,"Test System: AMES SALMONELLA TYPHIMURIUM, Strain/Indicator: TA98, Metabolic Activation: RAT, LIVER, S-9, AROCLOR 1254, Method: STANDARD PLATE",inactive; negative
same,mutagenic call,"Test System: AMES SALMONELLA TYPHIMURIUM, Strain/Indicator: TA100, Metabolic Activation: NONE, Method: STANDARD PLATE",inactive; negative
same,mutagenic call,"Test System: AMES SALMONELLA TYPHIMURIUM, Strain/Indicator: TA100, Metabolic Activation: RAT, LIVER, S-9, AROCLOR 1254, Method: STANDARD PLATE",inactive; negative
same,mutagenic call,"Test System: AMES SALMONELLA TYPHIMURIUM, Strain/Indicator: TA102, Metabolic Activation: NONE, Method: STANDARD PLATE",inactive; negative
same,mutagenic call,"Test System: AMES SALMONELLA TYPHIMURIUM, Strain/Indicator: TA102, Metabolic Activation: RAT, LIVER, S-9, AROCLOR 1254, Method: STANDARD PLATE",inactive; negative
O=C(CCl)C(Cl)Cl,mutagenic call,"Test System: AMES SALMONELLA TYPHIMURIUM, Strain/Indicator: TA100, Metabolic Activation: NONE, Method: FLUCTUATION TEST",active; positive
same,mutagenic call,"Test System: AMES SALMONELLA TYPHIMURIUM, Strain/Indicator: TA100, Metabolic Activation: RAT, LIVER, S-9, AROCLOR 1254, Method: FLUCTUATION TEST",inactive; negative
